The text below walks through data of ChEMBL document CHEMBL1201862, “PubChem BioAssay data set” (2004).

Assay in all cases: growth of human tumour cells (NCI), 48 h
Experiment [1] relates to A549.
The subject of experiment [2] is ACHN.
For experiment [3], the system named is HOP-92.
In experiment [4] the test system is KM12.
Experiment [5] relates to M14.
The test system of experiment [6] is MDA-MB-435.
The test system of experiment [7] is MOLT-4.
Experiment [8] relates to NCI-H226.
Experiment [9] deals with OVCAR-3.
The test system of experiment [10] is OVCAR-5.
In experiment [11] the test system is PC-3.
Experiment [12] relates to RXF 393.
Experiment [13] relates to SF-539.
The subject of experiment [14] is SK-MEL-28.
In experiment [15] the test system is SK-OV-3.
The subject of experiment [16] is SN12C.
Experiment [17] deals with SNB-75.
The subject of experiment [18] is SW-620.
The subject of experiment [19] is UACC-257.
In experiment [20] the test system is UO-31.

Counter-ions that a name gives are not always drawn.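 Cultured in 96-well plates, cells were exposed to test compound for 48 hours across five concentrations. At the GI50, growth is halved.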 Calls of active or inactive are those of the source. Rule as the data show it: active = GI50 up to about 1.1 µM and inactive = higher.

As for `Oc1ccccc1C(c1cc2c(cc1O)OCO2)N1CCOCC1` (stereo unspecified), the GI50 in experiment [1] was 23 µM (inactive); in experiment [2] it was 17.5 µM (inactive); in [3] it was 17.3 µM (inactive); in experiment [4], 19.8 µM (inactive); in experiment [5] it was 17.9 µM (inactive); in [6] it was 18.2 µM (inactive). Also, the GI50 is 8.24 µM (inactive) in experiment [7]; 35.6 µM (inactive) in [8]; 17.5 µM (inactive) in experiment [9]; 25 µM (inactive) in experiment [10]; 16.3 µM (inactive) in experiment [11]; 14.3 µM (inactive) in [12]. For the same compound, the GI50 in [13] is 20.7 µM (inactive); in [14], 20.7 µM (inactive); in experiment [15], 19.8 µM (inactive); in experiment [16], 19.1 µM (inactive); in experiment [17], 16.4 µM (inactive); in experiment [18], 23 µM (inactive). Also, the figures for the GI50 in experiment [19] and in experiment [20] were 19.2 µM (inactive) and 15.8 µM (inactive), respectively.
As for `N#CC(=C1CCN(CCCC(=O)c2ccc(F)cc2)CC1)c1ccccc1`, the GI50 in experiment [1], in experiment [2], in experiment [3], in [4], in [6] and in experiment [7] was > 100 µM (inactive) throughout. For the same compound, the GI50 in [8], in experiment [10], in experiment [11], in [12], in [13] and in [14] was > 100 µM (inactive) each time. Moreover, the GI50 in experiment [15], in experiment [16], in [17], in experiment [18], in experiment [19] and in experiment [20] was > 100 µM (inactive) each time.
On to `CCOc1ccccc1/N=N/C1C(=O)N(C(=O)CC(=O)Nc2ccccc2OC)N=C1C` (stereo unspecified), for which the GI50 was > 100 µM (inactive) in experiment [1]; > 100 µM (inactive) in experiment [2]; 20.3 µM (inactive) in [3]; > 100 µM (inactive) in [4]; > 100 µM (inactive) in [5]; > 100 µM (inactive) in experiment [6]. Further, the GI50 in [7] is > 100 µM (inactive); in [8] it was > 100 µM (inactive); in experiment [9], > 100 µM (inactive); in [10], > 100 µM (inactive); in [11] it was > 100 µM (inactive); in experiment [12], 24.2 µM (inactive). For the same compound, the GI50 is 53.2 µM (inactive) in experiment [13]; > 100 µM (inactive) in experiment [14]; 27.5 µM (inactive) in [15]; > 100 µM (inactive) in experiment [16]; 16.3 µM (inactive) in experiment [17]; > 100 µM (inactive) in [18]. For the same compound, the GI50 in experiment [20] is 27.8 µM (inactive).
As for `COc1cc(C)c(/C=C2/N=C(c3ccccc3)OC2=O)c([N+](=O)[O-])c1OC`, the GI50 is > 100 µM (inactive) in experiment [1]; > 100 µM (inactive) in experiment [2]; 37.4 µM (inactive) in [3]; > 100 µM (inactive) in experiment [4]; > 100 µM (inactive) in experiment [5]; > 100 µM (inactive) in experiment [6]. The GI50 in [7], in experiment [8], in experiment [9], in experiment [10], in experiment [11] and in [12] was > 100 µM (inactive) in each case. The GI50 in [13] was > 100 µM (inactive); in experiment [14], > 100 µM (inactive); in experiment [15] it was > 100 µM (inactive); in experiment [16] it was > 100 µM (inactive); in [17], 89.1 µM (inactive); in experiment [18], > 100 µM (inactive). For the same compound, the GI50 in experiment [19] was > 100 µM (inactive).
Consider `COc1ccc(NC(=O)CSc2nc(C)nc3c2sc(=S)n3-c2ccccc2)cc1`, for which the GI50 in [1] was > 10 µM (inactive); in experiment [2], 4.68 µM (inactive); in experiment [3], 2.11 µM (inactive); in [4] it was > 10 µM (inactive); in [5], 8.07 µM (inactive); in [6] it was 7.91 µM (inactive). For the same compound, the GI50 was > 10 µM (inactive) in experiment [7]; 6.85 µM (inactive) in experiment [8]; 6.15 µM (inactive) in [9]; > 10 µM (inactive) in experiment [10]; > 10 µM (inactive) in experiment [11]; > 10 µM (inactive) in [12]. For the same compound, the GI50 in experiment [13] is 2.43 µM (inactive); in experiment [14] it was > 10 µM (inactive); in experiment [15] it was > 10 µM (inactive); in experiment [16] it was > 10 µM (inactive); in experiment [17] it was 2.97 µM (inactive); in experiment [18] it was > 10 µM (inactive). Besides, the GI50 in experiment [19] was > 10 µM (inactive).
Consider `COC(=O)/C=C\C(C#N)(C#N)/N=C/c1ccc(OC)cc1`, for which the GI50 in experiment [1] is 19.5 µM (inactive); in experiment [2], 2.82 µM (inactive); in experiment [3] it was 1.92 µM (inactive); in experiment [4] it was 16.7 µM (inactive); in experiment [5], 3.08 µM (inactive); in experiment [6] it was 2.33 µM (inactive). Also, the GI50 is 1.06 µM (active) in experiment [7]; 10.8 µM (inactive) in [8]; 2.72 µM (inactive) in [9]; 21.7 µM (inactive) in experiment [10]; 7.4 µM (inactive) in [11]; 2.19 µM (inactive) in experiment [12]. Also, the GI50 in experiment [13] is 4.99 µM (inactive); in [14], 2.7 µM (inactive); in experiment [15], 17.3 µM (inactive); in experiment [16], 15.3 µM (inactive); in [17], 16.4 µM (inactive); in [18], 1.99 µM (inactive). Besides, the GI50 in experiment [19] is 4.83 µM (inactive); in experiment [20] it was 2.25 µM (inactive).
With `CCNc1ncnc2c1nnn2CC`, the GI50 is > 100 µM (inactive) in experiment [1]; > 100 µM (inactive) in experiment [2]; 72.1 µM (inactive) in experiment [3]; > 100 µM (inactive) in experiment [4]; > 100 µM (inactive) in [5]; > 100 µM (inactive) in experiment [6]. Also, the GI50 in experiment [7], in experiment [8], in [9], in [11], in [12] and in [13] was > 100 µM (inactive) each time. The GI50 in [14] is > 100 µM (inactive); in experiment [15], > 100 µM (inactive); in [16] it was > 100 µM (inactive); in experiment [17], 77.1 µM (inactive); in experiment [18], > 100 µM (inactive); in experiment [19], > 100 µM (inactive). For the same compound, the GI50 in [20] was > 100 µM (inactive).
Regarding `NC(=O)CC(N)C(N)=O` (stereo unspecified), the GI50 in experiment [1], in [2], in experiment [3], in experiment [4], in experiment [5] and in [6] was > 100 µM (inactive) each time. Besides, the GI50 in experiment [7], in experiment [8], in experiment [9], in experiment [11], in experiment [12] and in experiment [13] was > 100 µM (inactive) each time. The GI50 in [14], in [15], in experiment [16], in [17], in [18] and in [19] was > 100 µM (inactive) throughout.
As for `COc1cc2c(cc1OC)C(CCN)=NCC2`, the GI50 in experiment [1] was 31.6 µM (inactive); in [2] it was 16.6 µM (inactive); in experiment [3], 6.82 µM (inactive); in experiment [4], 19 µM (inactive); in experiment [5], 17.2 µM (inactive); in experiment [6], 16.5 µM (inactive). In addition, the GI50 in experiment [7] was 17.1 µM (inactive); in [8], > 46.1 µM (inactive); in experiment [9], 18 µM (inactive); in experiment [10], > 42.6 µM (inactive); in [11] it was 16 µM (inactive); in experiment [12], 15.7 µM (inactive). The GI50 in experiment [13] was 6.75 µM (inactive); in experiment [14], 18.4 µM (inactive); in experiment [15] it was > 76.7 µM (inactive); in experiment [16], 19 µM (inactive); in experiment [17], 18.5 µM (inactive); in experiment [18], 5 µM (inactive). In addition, the values for the GI50 in experiment [19] and in experiment [20] were 17.9 µM (inactive) and 1.77 µM (inactive), respectively.
On to `NCCCCNCCCN` [SPERMIDINE TRIHYDROCHLORIDE], for which the GI50 in experiment [1] is > 100 µM (inactive); in [2], > 100 µM (inactive); in experiment [3], > 100 µM (inactive); in experiment [4], > 100 µM (inactive); in experiment [5], > 100 µM (inactive); in experiment [6] it was 27.4 µM (inactive). In addition, the GI50 in experiment [7] is 51.3 µM (inactive); in experiment [8], > 100 µM (inactive); in [9], > 100 µM (inactive); in experiment [10], > 100 µM (inactive); in experiment [11], > 100 µM (inactive); in experiment [12], > 100 µM (inactive). Besides, the GI50 in experiment [13], in experiment [14], in experiment [15], in experiment [17], in experiment [18] and in [19] was > 100 µM (inactive) in each case. In addition, in experiment [20], the GI50 was > 100 µM (inactive).
